# Data as given in article PMC7316778 (Nature Communications, 2020).
# Legend:
# FES^S700C [1] = molecular target: T1, FES^S700C (Homo sapiens, UniProt P07332, S700C); assay: PamChip microarray peptide phosphorylation; assay type: biochemical; parameters: human FES cDNA encoding residues 448–822 or human FER cDNA encoding residues 448–820 was amplified by PCR; made in house; host or cells: E. coli BL21(DE3), co-expressing YopH phosphatase; details: peptide substrate phosphorylated by FES - S700C
# T1 sequence (P07332 448-822 S700C): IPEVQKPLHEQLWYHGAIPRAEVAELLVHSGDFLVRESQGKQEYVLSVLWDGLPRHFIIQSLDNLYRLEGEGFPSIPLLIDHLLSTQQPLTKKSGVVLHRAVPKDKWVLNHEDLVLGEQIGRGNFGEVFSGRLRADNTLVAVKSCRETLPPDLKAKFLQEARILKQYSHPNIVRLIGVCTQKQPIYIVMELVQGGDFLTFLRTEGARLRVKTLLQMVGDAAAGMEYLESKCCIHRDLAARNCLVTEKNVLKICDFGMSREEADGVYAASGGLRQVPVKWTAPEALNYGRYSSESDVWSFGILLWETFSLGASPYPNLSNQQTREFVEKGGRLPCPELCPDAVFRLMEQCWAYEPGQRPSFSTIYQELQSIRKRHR
# FES^S700C [2] = molecular target: T1, FES^S700C; assay: In vitro TR-FRET kinase assay; assay type: biochemical; parameters: human FES cDNA encoding residues 448–822 or human FER cDNA encoding residues 448–820 was amplified by PCR; made in house; host or cells: E. coli BL21(DE3), co-expressing YopH phosphatase; details: for Apparent fold selectivity: IC50 on FES^WT divided by IC50 on FES^S700C; for IC50: read-out: pIC50 FES^S700C (converted); for Residual activity (%): FES S700C, mean, n=3
compound,measurement,setting,value
"NPT2A_501_513 (AKALGKRTAKYRW; UniProt Q06495 501-513, looked up, fragment)",Relative phosphorylation (% of highest signal),FES^S700C [1],0.557 % of highest signal
COc1ccccc1Nc1ncc(Cl)c(Nc2ccccc2S(=O)(=O)C(C)C)n1 [Compound 2],Apparent fold selectivity,FES^S700C [2],2.5 fold
same,IC50,"FES^S700C [2]; TR-FRET assay, 5 µM ATP, n = 3",15.8 nM
C=CC(=O)Nc1cccc(Nc2nc(Nc3ccccc3OC)ncc2Cl)c1 [Supplementary Figure 1d],Residual activity (%),FES^S700C [2]; log[inhibitor] (M) = -5,-0.2497%
same,Residual activity (%),FES^S700C [2]; log[inhibitor] (M) = -5.52288,-0.5097%
same,Residual activity (%),FES^S700C [2]; log[inhibitor] (M) = -6,-0.8205%
same,Residual activity (%),FES^S700C [2]; log[inhibitor] (M) = -6.52288,-0.4059%
same,Residual activity (%),FES^S700C [2]; log[inhibitor] (M) = -7,-0.7051%
same,Residual activity (%),FES^S700C [2]; log[inhibitor] (M) = -7.52288,-0.1368%
same,Residual activity (%),FES^S700C [2]; log[inhibitor] (M) = -8,11.6016%
same,Residual activity (%),FES^S700C [2]; log[inhibitor] (M) = -8.52288,70.8547%
same,Residual activity (%),FES^S700C [2]; log[inhibitor] (M) = -9,85.0509%
same,Residual activity (%),FES^S700C [2]; log[inhibitor] (M) = -9.52288,98.0879%
same,Residual activity (%),FES^S700C [2]; log[inhibitor] (M) = -10,85.4934%
same,Residual activity (%),FES^S700C [2]; log[inhibitor] (M) = -10.5229,94.4068%
same,Residual activity (%),FES^S700C [2]; log[inhibitor] (M) = -11,106.971%
"VINC_815_827 (KSFLDSGYRILGA; UniProt P18206 815-827, looked up, fragment)",Relative phosphorylation (% of highest signal),FES^S700C [1],0.6 % of highest signal
C=CC(=O)Nc1ccccc1Nc1nc(Nc2ccccc2OC)ncc1Cl [Supplementary Figure 1e],Residual activity (%),FES^S700C [2]; log[inhibitor] (M) = -5,5.657%
same,Residual activity (%),FES^S700C [2]; log[inhibitor] (M) = -5.52288,10.8053%
same,Residual activity (%),FES^S700C [2]; log[inhibitor] (M) = -6,28.2387%
same,Residual activity (%),FES^S700C [2]; log[inhibitor] (M) = -6.52288,69.3014%
same,Residual activity (%),FES^S700C [2]; log[inhibitor] (M) = -7,75.3706%
same,Residual activity (%),FES^S700C [2]; log[inhibitor] (M) = -7.52288,96.1185%
same,Residual activity (%),FES^S700C [2]; log[inhibitor] (M) = -8,98.0581%
same,Residual activity (%),FES^S700C [2]; log[inhibitor] (M) = -8.52288,106.349%
same,Residual activity (%),FES^S700C [2]; log[inhibitor] (M) = -9,109.01%
same,Residual activity (%),FES^S700C [2]; log[inhibitor] (M) = -9.52288,116.606%
same,Residual activity (%),FES^S700C [2]; log[inhibitor] (M) = -10,111.768%
same,Residual activity (%),FES^S700C [2]; log[inhibitor] (M) = -10.5229,102.117%
same,Residual activity (%),FES^S700C [2]; log[inhibitor] (M) = -11,99.3612%
"VGFR1_1162_1174 (VQQDGKDYIPINA; UniProt P17948 1162-1174, looked up, fragment)",Relative phosphorylation (% of highest signal),FES^S700C [1],4.4 % of highest signal
"STAT4_686_698 (TERGDKGYVPSVF; UniProt Q14765 686-698, looked up, fragment)",Relative phosphorylation (% of highest signal),FES^S700C [1],-0.317 % of highest signal
"STA5A_687_699 (LAKAVDGYVKPQI; UniProt P42229 687-699, looked up, fragment)",Relative phosphorylation (% of highest signal),FES^S700C [1],-0.9 % of highest signal
"VGFR1_1235_1247 (ATSMFDDYQGDSS; UniProt P17948 1235-1247, looked up, fragment)",Relative phosphorylation (% of highest signal),FES^S700C [1],-0.074 % of highest signal
"VGFR2_989_1001 (EEAPEDLYKDFLT; UniProt P35968 989-1001, looked up, fragment)",Relative phosphorylation (% of highest signal),FES^S700C [1],14.2 % of highest signal
"ZAP70_485_497 (ALGADDSYYTARS; UniProt P43403 485-497, looked up, fragment)",Relative phosphorylation (% of highest signal),FES^S700C [1],7.2 % of highest signal
"DDR1_506_518 (LLLSNPAYRLLLA; UniProt Q08345 506-518, looked up, fragment)",Relative phosphorylation (% of highest signal),FES^S700C [1],-0.9 % of highest signal
CCC(=O)Nc1ccccc1Nc1nc(Nc2ccccc2OC)ncc1Cl [Compound 5],pIC50 FES^S700C,"FES^S700C [2]; TR-FRET assay, 5 µM ATP, n = 3",low inhibitory potency
same,IC50,"FES^S700C [2]; TR-FRET assay, 5 µM ATP, n = 3",6310 nM
"MBP_259_271 (FGYGGRASDYKSA; UniProt P02686 259-271, looked up, fragment)",Relative phosphorylation (% of highest signal),FES^S700C [1],-0.258 % of highest signal
"MK01_198_210 (IMLNSKGYTKSID; UniProt P28482 198-210, looked up, fragment)",Relative phosphorylation (% of highest signal),FES^S700C [1],-1.1 % of highest signal
"VGFR1_1049_1061 (KNPDYVRKGDTRL; UniProt P17948 1049-1061, looked up, fragment)",Relative phosphorylation (% of highest signal),FES^S700C [1],-0.7 % of highest signal
"AMPE_5_17 (EREGSKRYCIQTK; UniProt Q07075 5-17, looked up, fragment)",Relative phosphorylation (% of highest signal),FES^S700C [1],-0.5 % of highest signal
"NTRK2_509_521 (PVIENPQYFGITN; UniProt Q16620 509-521, looked up, fragment)",Relative phosphorylation (% of highest signal),FES^S700C [1],-1.0 % of highest signal
"VGFR2_1046_1058 (DFGLARDIYKDPD; UniProt P35968 1046-1058, looked up, fragment)",Relative phosphorylation (% of highest signal),FES^S700C [1],2.1 % of highest signal
"VGFR2_944_956 (RFRQGKDYVGAIP; UniProt P35968 944-956, looked up, fragment)",Relative phosphorylation (% of highest signal),FES^S700C [1],1.4 % of highest signal
"ODBA_340_352_D340K (KDSSAYRSVDEVN; UniProt P12694 340-352, looked up, variant D340K)",Relative phosphorylation (% of highest signal),FES^S700C [1],-0.7 % of highest signal
"VGFR2_1168_1180 (AQQDGKDYIVLPI; UniProt P35968 1168-1180, looked up, fragment)",Relative phosphorylation (% of highest signal),FES^S700C [1],9.5 % of highest signal
"EPOR_361_373 (SEHAQDTYLVLDK; UniProt P19235 361-373, looked up, fragment)",Relative phosphorylation (% of highest signal),FES^S700C [1],5.7 % of highest signal
"MBP_263_275 (GRASDYKSAHKGF; UniProt P02686 263-275, looked up, fragment)",Relative phosphorylation (% of highest signal),FES^S700C [1],-0.5 % of highest signal
"VGFR1_1320_1332_C1320K/C1321K (KKSPPPDYNSVVL; UniProt P17948 1320-1332, looked up, variant C1320K C1321K)",Relative phosphorylation (% of highest signal),FES^S700C [1],4.5 % of highest signal
"STAT6_634_646 (MGKDGRGYVPATI; UniProt P42226 634-646, looked up, fragment)",Relative phosphorylation (% of highest signal),FES^S700C [1],-0.6 % of highest signal
"VGFR2_1207_1219_C1208S (VSDPKFHYDNTAG; UniProt P35968 1207-1219, looked up, variant C1208S)",Relative phosphorylation (% of highest signal),FES^S700C [1],1.3 % of highest signal
"VGFR3_1061_1073 (DIYKDPDYVRKGS; UniProt P35916 1061-1073, looked up, fragment)",Relative phosphorylation (% of highest signal),FES^S700C [1],0.1 % of highest signal
"EFS_246_258_Y253F (GGTDEGIFDVPLL; UniProt O43281 246-258, looked up, fragment Y253F)",Relative phosphorylation (% of highest signal),FES^S700C [1],-1.4 % of highest signal
ART_004_EAIYAAPFAKKKXC,Relative phosphorylation (% of highest signal),FES^S700C [1],8.3 % of highest signal
"VGFR1_1206_1218 (GSSDDVRYVNAFK; UniProt P17948 1206-1218, looked up, fragment)",Relative phosphorylation (% of highest signal),FES^S700C [1],0.24 % of highest signal
C=CC(=O)Nc1ccccc1Nc1nc(Nc2ccccc2OC)ncc1Cl [Compound 4],Apparent fold selectivity,FES^S700C [2],238 fold
same,IC50,"FES^S700C [2]; TR-FRET assay, 5 µM ATP, n = 3",3.98 nM
"EPHA2_581_593 (QLKPLKTYVDPHT; UniProt P29317 581-593, looked up, fragment)",Relative phosphorylation (% of highest signal),FES^S700C [1],0.144 % of highest signal
"PERI_458_470 (QRSELDKSSAHSY; UniProt P41219 458-470, looked up, fragment)",Relative phosphorylation (% of highest signal),FES^S700C [1],-1.0 % of highest signal
CCC(=O)Nc1ccccc1Nc1nc(Nc2ccccc2OC)ncc1Cl [Supplementary Figure 1f],Residual activity (%),FES^S700C [2]; log[inhibitor] (M) = -5,51.0323%
same,Residual activity (%),FES^S700C [2]; log[inhibitor] (M) = -5.52288,52.0081%
same,Residual activity (%),FES^S700C [2]; log[inhibitor] (M) = -6,80.9285%
same,Residual activity (%),FES^S700C [2]; log[inhibitor] (M) = -6.52288,101.29%
same,Residual activity (%),FES^S700C [2]; log[inhibitor] (M) = -7,99.7119%
same,Residual activity (%),FES^S700C [2]; log[inhibitor] (M) = -7.52288,103.019%
same,Residual activity (%),FES^S700C [2]; log[inhibitor] (M) = -8,101.749%
COc1ccccc1Nc1ncc(Cl)c(Nc2ccccc2S(=O)(=O)C(C)C)n1 [Supplementary Figure 1c],Residual activity (%),FES^S700C [2]; log[inhibitor] (M) = -5,0.2233%
same,Residual activity (%),FES^S700C [2]; log[inhibitor] (M) = -5.52288,0.2556%
same,Residual activity (%),FES^S700C [2]; log[inhibitor] (M) = -6,-0.06933%
same,Residual activity (%),FES^S700C [2]; log[inhibitor] (M) = -6.52288,4.851%
same,Residual activity (%),FES^S700C [2]; log[inhibitor] (M) = -7,14.3041%
same,Residual activity (%),FES^S700C [2]; log[inhibitor] (M) = -7.52288,33.9502%
same,Residual activity (%),FES^S700C [2]; log[inhibitor] (M) = -8,66.7428%
same,Residual activity (%),FES^S700C [2]; log[inhibitor] (M) = -8.52288,88.3714%
same,Residual activity (%),FES^S700C [2]; log[inhibitor] (M) = -9,94.1217%
same,Residual activity (%),FES^S700C [2]; log[inhibitor] (M) = -9.52288,96.7458%
same,Residual activity (%),FES^S700C [2]; log[inhibitor] (M) = -10,89.1056%
same,Residual activity (%),FES^S700C [2]; log[inhibitor] (M) = -10.5229,99.8276%
same,Residual activity (%),FES^S700C [2]; log[inhibitor] (M) = -11,106.567%
"EPHA4_921_933 (QAIKMDRYKDNFT; UniProt P54764 921-933, looked up, fragment)",Relative phosphorylation (% of highest signal),FES^S700C [1],-0.7 % of highest signal
Nc1ncnc2c1ncn2[C@@H]1O[C@H](COP(=O)(O)OP(=O)(O)OP(=O)(O)O)[C@@H](O)[C@H]1O [ATP],Km,"FES^S700C [2]; FES^S700C, TR-FRET, 60 min, read-out: ATP KM",790 nM
"STAT1_694_706 (DGPKGTGYIKTEL; UniProt P42224 694-706, looked up, fragment)",Relative phosphorylation (% of highest signal),FES^S700C [1],-0.9 % of highest signal
"VGFR1_1046_1058_Y1048F (DIFKNPDYVRKGD; UniProt P17948 1046-1058, looked up, variant Y1048F)",Relative phosphorylation (% of highest signal),FES^S700C [1],-0.9 % of highest signal
"ZBT16_621_633 (LRTHNGASPYQCT; UniProt Q05516 621-633, looked up, fragment)",Relative phosphorylation (% of highest signal),FES^S700C [1],1.1 % of highest signal
